Consider 16 compounds from patent US10058550B2, “Methods of treating heart failure” (priority 2015, dated 2018).

Sequence of human APJ receptor (P35414 whole entry): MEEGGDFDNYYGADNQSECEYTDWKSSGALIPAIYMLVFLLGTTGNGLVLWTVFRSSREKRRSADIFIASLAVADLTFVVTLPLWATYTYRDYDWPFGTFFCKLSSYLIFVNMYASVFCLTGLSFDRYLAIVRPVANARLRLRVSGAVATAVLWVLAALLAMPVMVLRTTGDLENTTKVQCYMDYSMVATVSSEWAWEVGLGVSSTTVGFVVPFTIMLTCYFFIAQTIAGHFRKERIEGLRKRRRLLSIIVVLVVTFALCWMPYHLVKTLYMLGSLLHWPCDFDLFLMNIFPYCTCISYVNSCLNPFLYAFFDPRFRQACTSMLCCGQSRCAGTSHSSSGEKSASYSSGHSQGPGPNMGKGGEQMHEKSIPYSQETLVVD

This assay has as its target human APJ receptor (Homo sapiens (Human), UniProt P35414). As to the kind of experiment: biochemical. It counts as biochemical. The conditions noted are these: read-out: Activity hAPJ SPA EC50 IP. Summed up: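 Membranes from CHO cells stably expressing cloned human APJ were incubated with WGA SPA beads in 20 mM HEPES pH 7.5, 5 mM MgCl2, 0.1% BSA, 200 mM NaCl and 3 μM GDP. Reaction started with 0.2 nM [35S]GTPγS ± ligands, 90 min at RT. EC50 obtained by non-linear regression as mean of independent experiments.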
Usually EC50 stands for the concentration giving half of the maximal effect. As for `COc1cccc(OC)c1-n1c(NS(=O)(=O)C[C@H](O)c2ncc(C)cn2)nnc1-c1cncc(C)c1` (single isomer, unassigned) [Example 729.0, (R)—N-(4-(2,6-dimethoxyphenyl)-5-(5-methylpyridin-3-yl)-4H-1,2,4-triazol-3-yl)-2-hydroxy-2-(5-methylpyrimidin-2-yl)ethanesulfonamide or (S)—N-(4-(2,6-dimethoxyphenyl)-5-(5-methylpyridin-3-yl)-4H-1,2,4-triazol-3-yl)-2-hydroxy-2-(5-methylpyrimidin-2-yl)ethanesulfonamide], the EC50 amounted to 1.5 nM.
For `COc1cccc(OC)c1-n1c(NS(=O)(=O)[C@H](C)[C@@H](O)c2cn3ccccc3n2)nnc1-c1cccnc1` (single isomer, unassigned) [Example 735.0, (1S,2R)—N-(4-(2,6-dimethoxyphenyl)-5-(pyridin-3-yl)-4H-1,2,4-triazol-3-yl)-1-hydroxy-1-(imidazo[1,2-a]pyridin-2-yl)propane-2-sulfonamide or (1R,2S)—N-(4-(2,6-dimethoxyphenyl)-5-(pyridin-3-yl)-4H-1,2,4-triazol-3-yl)-1-hydroxy-1-(imidazo[1,2-a]pyridin-2-yl)propane-2-sulfonamide] the value was 0.48 nM; for `COc1cccc(OC)c1-n1c(NS(=O)(=O)[C@H](C)[C@@H](O)c2cn3ccccc3n2)nnc1-c1cccnc1` (single isomer, unassigned) [Example 736.0, (1S,2R)—N-(4-(2,6-dimethoxyphenyl)-5-(pyridin-3-yl)-4H-1,2,4-triazol-3-yl)-1-hydroxy-1-(imidazo[1,2-a]pyridin-2-yl)propane-2-sulfonamide or (1R,2S)—N-(4-(2,6-dimethoxyphenyl)-5-(pyridin-3-yl)-4H-1,2,4-triazol-3-yl)-1-hydroxy-1-(imidazo[1,2-a]pyridin-2-yl)propane-2-sulfonamide], 19 nM; for `COc1cccc(-c2nnc(NS(=O)(=O)[C@@H](C)[C@H](OC)c3ncc(C)cn3)n2-c2c(O)ncnc2OC)n1` (single isomer, unassigned) [Example 739.0, (1R,2S,M)-N-(4-(4-hydroxy-6-methoxypyrimidin-5-yl)-5-(6-methoxypyridin-2-yl)-4H-1,2,4-triazol-3-yl)-1-methoxy-1-(5-methylpyrimidin-2-yl)propane-2-sulfonamide or (1R,2S,P)-N-(4-(4-hydroxy-6-methoxypyrimidin-5-yl)-5-(6-methoxypyridin-2-yl)-4H-1,2,4-triazol-3-yl)-1-methoxy-1-(5-methylpyrimidin-2-yl)propane-2-sulfonamide], 1.5 nM.
As for `COc1cccc(-c2nnc(NS(=O)(=O)[C@@H](C)[C@H](OC)c3ncc(C)cn3)n2-c2c(O)ncnc2OC)n1` (single isomer, unassigned) [Example 740.0, (1R,2S,M)-N-(4-(4-hydroxy-6-methoxypyrimidin-5-yl)-5-(6-methoxypyridin-2-yl)-4H-1,2,4-triazol-3-yl)-1-methoxy-1-(5-methylpyrimidin-2-yl)propane-2-sulfonamide or (1R,2S,P)-N-(4-(4-hydroxy-6-methoxypyrimidin-5-yl)-5-(6-methoxypyridin-2-yl)-4H-1,2,4-triazol-3-yl)-1-methoxy-1-(5-methylpyrimidin-2-yl)propane-2-sulfonamide], the figure is 56 nM; as for `COc1cnc([C@@H](OC(C)C)[C@@H](C)S(=O)(=O)Nc2nnc(-c3cncc(C)c3)n2-c2c(OC)cccc2OC)cn1` (single isomer, unassigned) [Example 742.0, (1R,2R)-N-(4-(2,6-dimethoxyphenyl)-5-(5-methylpyridin-3-yl)-4H-1,2,4-triazol-3-yl)-1-isopropoxy-1-(5-methoxypyrazin-2-yl)propane-2-sulfonamide or (1S,2S)-N-(4-(2,6-dimethoxyphenyl)-5-(5-methylpyridin-3-yl)-4H-1,2,4-triazol-3-yl)-1-isopropoxy-1-(5-methoxypyrazin-2-yl)propane-2-sulfonamide], 35 nM.
As for `COc1cccc(OC)c1-n1c(NS(=O)(=O)[C@H](C)[C@H](OC(C)C)c2ccc(Cl)cn2)nnc1-c1cncc(C)c1` (single isomer, unassigned) [Example 744.0, (1R,2R)-1-(5-chloropyridin-2-yl)-N-(4-(2,6-dimethoxyphenyl)-5-(5-methylpyridin-3-yl)-4H-1,2,4-triazol-3-yl)-1-isopropoxypropane-2-sulfonamide or (1S,2S)-1-(5-chloropyridin-2-yl)-N-(4-(2,6-dimethoxyphenyl)-5-(5-methylpyridin-3-yl)-4H-1,2,4-triazol-3-yl)-1-isopropoxypropane-2-sulfonamide], the figure is 26 nM.
Consider `COc1cccc(OC)c1-n1c(NS(=O)(=O)[C@H](C)[C@H](OC(C)C)c2ccc(Cl)cn2)nnc1-c1cncc(C)c1` (single isomer, unassigned) [Example 745.0, (1R,2R)-1-(5-chloropyridin-2-yl)-N-(4-(2,6-dimethoxyphenyl)-5-(5-methylpyridin-3-yl)-4H-1,2,4-triazol-3-yl)-1-isopropoxypropane-2-sulfonamide or (1S,2S)-1-(5-chloropyridin-2-yl)-N-(4-(2,6-dimethoxyphenyl)-5-(5-methylpyridin-3-yl)-4H-1,2,4-triazol-3-yl)-1-isopropoxypropane-2-sulfonamide], for which the EC50 turned out to be 0.4 nM.
As for `COc1cccc(OC)c1-n1c(NS(=O)(=O)[C@H](C)[C@H](OC(C)C)c2cnc(C)cn2)nnc1-c1cncc(C)c1` (single isomer, unassigned) [Example 746.0, (1R,2R)-N-(4-(2,6-dimethoxyphenyl)-5-(5-methylpyridin-3-yl)-4H-1,2,4-triazol-3-yl)-1-isopropoxy-1-(5-methylpyrazin-2-yl)propane-2-sulfonamide or (1S,2S)-N-(4-(2,6-dimethoxyphenyl)-5-(5-methylpyridin-3-yl)-4H-1,2,4-triazol-3-yl)-1-isopropoxy-1-(5-methylpyrazin-2-yl)propane-2-sulfonamide], the figure is 80 nM; as for `COc1cccc(OC)c1-n1c(NS(=O)(=O)[C@H](C)[C@H](OC(C)C)c2cnc(C)cn2)nnc1-c1cncc(C)c1` (single isomer, unassigned) [Example 747.0, (1R,2R)-N-(4-(2,6-dimethoxyphenyl)-5-(5-methylpyridin-3-yl)-4H-1,2,4-triazol-3-yl)-1-isopropoxy-1-(5-methylpyrazin-2-yl)propane-2-sulfonamide or (1S,2S)-N-(4-(2,6-dimethoxyphenyl)-5-(5-methylpyridin-3-yl)-4H-1,2,4-triazol-3-yl)-1-isopropoxy-1-(5-methylpyrazin-2-yl)propane-2-sulfonamide], 7.6 nM.
As for `COc1ncnc(OC)c1-n1c(NS(=O)(=O)[C@@H]2C[C@@H](OC)CN(c3ncc(F)cn3)C2)nnc1-c1cccnc1` (single isomer, unassigned) [Example 812.0, (3S,5S)—N-(4-(4,6-dimethoxy-5-pyrimidinyl)-5-(3-pyridinyl)-4H-1,2,4-triazol-3-yl)-1-(5-fluoro-2-pyrimidinyl)-5-methoxy-3-piperidinesulfonamide or (3R,5R)—N-(4-(4,6-dimethoxy-5-pyrimidinyl)-5-(3-pyridinyl)-4H-1,2,4-triazol-3-yl)-1-(5-fluoro-2-pyrimidinyl)-5-methoxy-3-piperidinesulfonamide], the figure is 230 nM; as for `Cc1cnc([C@@H](C)[C@H](C)S(=O)(=O)Nc2nnc(-c3cncc(C)c3)n2-c2c(F)cccc2F)nc1` (single isomer, unassigned) [Example 826.0], 1.7 nM; as for `COc1cccc(-c2nnc(NS(=O)(=O)[C@@H]3CCCN(c4ncc(Cl)cn4)C3)n2-c2c(OC)ncnc2OC)n1` (single isomer, unassigned) [Example 830.0], 14 nM.
For `COc1ncnc(OC)c1-n1c(NS(=O)(=O)[C@@H]2C[C@H](OC)CN(c3ncc(F)cn3)C2)nnc1-c1cccnc1` (stereo in doubt) [Example 813.0, (3S,5R)-N-(4-(4,6-dimethoxy-5-pyrimidinyl)-5-(3-pyridinyl)-4H-1,2,4-triazol-3-yl)-1-(5-fluoro-2-pyrimidinyl)-5-methoxy-3-piperidinesulfonamide, (3R,5S)-N-(4-(4,6-dimethoxy-5-pyrimidinyl)-5-(3-pyridinyl)-4H-1,2,4-triazol-3-yl)-1-(5-fluoro-2-pyrimidinyl)-5-methoxy-3-piperidinesulfonamide] the value was 140 nM; for `COc1ncnc(OC)c1-n1c(NS(=O)(=O)[C@@H]2C[C@H](OC)CN(c3ncc(F)cn3)C2)nnc1-c1cccnc1` (stereo in doubt) [Example 814.0, (3R,5S)-N-(4-(4,6-dimethoxy-5-pyrimidinyl)-5-(3-pyridinyl)-4H-1,2,4-triazol-3-yl)-1-(5-fluoro-2-pyrimidinyl)-5-methoxy-3-piperidinesulfonamide, (3R,5S)-N-(4-(4,6-dimethoxy-5-pyrimidinyl)-5-(3-pyridinyl)-4H-1,2,4-triazol-3-yl)-1-(5-fluoro-2-pyrimidinyl)-5-methoxy-3-piperidinesulfonamide], 560 nM; for `COc1ncnc(OC)c1-n1c(NS(=O)(=O)[C@@H]2C[C@@H](OC)CN(c3ncc(F)cn3)C2)nnc1-c1cccnc1` (stereo in doubt) [Example 815.0, (3S,5S)-N-(4-(4,6-dimethoxy-5-pyrimidinyl)-5-(3-pyridinyl)-4H-1,2,4-triazol-3-yl)-1-(5-fluoro-2-pyrimidinyl)-5-methoxy-3-piperidinesulfonamide, (3R,5R)-N-(4-(4,6-dimethoxy-5-pyrimidinyl)-5-(3-pyridinyl)-4H-1,2,4-triazol-3-yl)-1-(5-fluoro-2-pyrimidinyl)-5-methoxy-3-piperidinesulfonamide], 170 nM.
